From the supplement of paper PMC10307832

Assays:
Test in all cases: relative viability (nuclei count vs DMSO), 5 days (fraction); higher = more cells survive
NVP-TAE684 + Phenformin = compound: COc1cc(N2CCC(N3CCN(C)CC3)CC2)ccc1Nc1ncc(Cl)c(Nc2ccccc2S(=O)(=O)C(C)C)n1 [NVP-TAE684] + N=C(N)NC(=N)NCCc1ccccc1 [Phenformin] (partner 250 µM)
Summary of the method: (§1)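 Relative viability equals treated-well nuclei counts divided by vehicle-well nuclei counts. Counts came from 4× images of lung cancer cell lines grown in 1536-well plates for 5 days after pin-tool dosing on the day after seeding. Dosing used one drug alone or a fixed anchor-drug dose plus five library-drug doses (not always all listed) in √10 steps, and values are medians of duplicate plates.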

Vandetanib + Crizotinib = compound: COc1cc2/c(=N/c3ccc(Br)cc3F)nc[nH]c2cc1OCC1CCN(C)CC1 [Vandetanib] + C[C@@H](Oc1cc(-c2cnn(C3CCNCC3)c2)cnc1N)c1c(Cl)ccc(F)c1Cl [Crizotinib] (partner 1 µM)
Summary of the method: as §1

CUDC-101 + Trametinib = compound: C#Cc1cccc(Nc2ncnc3cc(OC)c(OCCCCCCC(=O)NO)cc23)c1 [CUDC-101] + CC(=O)Nc1cccc(-n2c(=O)n(C3CC3)c(=O)c3c(Nc4ccc(I)cc4F)n(C)c(=O)c(C)c32)c1 [Trametinib] (partner 0.02 µM)
Summary of the method: as §1

CUDC-101 + Foretinib = compound: C#Cc1cccc(Nc2ncnc3cc(OC)c(OCCCCCCC(=O)NO)cc23)c1 [CUDC-101] + COc1cc2c(Oc3ccc(NC(=O)C4(C(=O)Nc5ccc(F)cc5)CC4)cc3F)ccnc2cc1OCCCN1CCOCC1 [Foretinib] (partner 0.25 µM)
Summary of the method: as §1

Cell Line	relative viability (NVP-TAE684 + Phenformin; first compound 0.2 µM)	relative viability (NVP-TAE684 + Phenformin; first compound 0.6325 µM)	relative viability (NVP-TAE684 + Phenformin; first compound 2 µM)	relative viability (Vandetanib + Crizotinib; first compound 0.02 µM)	relative viability (Vandetanib + Crizotinib; first compound 0.06325 µM)	relative viability (Vandetanib + Crizotinib; first compound 0.2 µM)	relative viability (Vandetanib + Crizotinib; first compound 0.6325 µM)	relative viability (Vandetanib + Crizotinib; first compound 2 µM)	relative viability (CUDC-101 + Trametinib; first compound 0.01 µM)	relative viability (CUDC-101 + Trametinib; first compound 0.03162 µM)	relative viability (CUDC-101 + Trametinib; first compound 0.1 µM)	relative viability (CUDC-101 + Trametinib; first compound 0.3162 µM)	relative viability (CUDC-101 + Trametinib; first compound 1 µM)	relative viability (CUDC-101 + Foretinib; first compound 0.01 µM)	relative viability (CUDC-101 + Foretinib; first compound 0.03162 µM)	relative viability (CUDC-101 + Foretinib; first compound 0.1 µM)	relative viability (CUDC-101 + Foretinib; first compound 0.3162 µM)	relative viability (CUDC-101 + Foretinib; first compound 1 µM)
NCI-H2405	0.395	0.417	0.312	0.876	0.664	0.875	0.88	0.795	0.682	0.558	0.658	0.779	0.551	1.09	0.991	1.08	1.16	1.04
NCI-H2087	0.501	0.436	0.33	0.785	0.949	0.835	0.88	0.904	0.224	0.225	0.204	0.195	0.185	1.33	1.03	1.08	1.04	0.664
NCI-H2023	0.449	0.415	0.19	0.661	0.556	0.624	0.49	0.499	0.615	0.542	0.578	0.551	0.428	0.759	0.672	0.836	0.764	0.615
NCI-H3122	0.156	0.131	0.125	0.291	0.257	0.266	0.261	0.249	0.201	0.224	0.198	0.243	0.228	1.02	0.973	0.908	0.943	0.769
ChaGo-K-1	0.533	0.457	0.339	1.1	1.19	1.14	1.13	1.16	0.958	0.898	0.909	0.87	0.784	0.916	0.875	0.945	0.894	0.709
NCI-H2347	0.252	0.302	0.294	0.665	0.56	0.737	0.789	0.718	0.285	0.264	0.278	0.294	0.259	0.888	0.948	0.902	0.99	0.689
NCI-H460	0.354	0.547	0.0633	0.902	0.786	0.0179	0.972	0.804	0.108	0.224	0.227	0.182	0.0486	0.991	0.917	1.02	1.03	0.93
HCC-827	0.377	0.41	0.372	0.983	0.93	0.851	0.242	0.192	0.53	0.257	0.18	0.183	0.147	1	0.436	0.203	0.153	0.167
HOP-62	0.545	0.734	0.788	1.03	0.919	0.695	1.01	1.11	0.362	0.361	0.403	0.441	0.346	1.08	1.08	1.1	1.14	0.713
NCI-H1792	0.268	0.25	0.159	0.941	0.973	0.924	0.991	0.894	0.607	0.322	0.439	0.453	0.359	–	–	–	–	–
HCC-15	0.495	0.396	0.238	0.837	0.793	0.855	0.826	0.821	0.396	0.382	0.385	0.399	0.262	1.09	0.993	0.966	1.09	0.933
NCI-H1755	0.631	0.537	0.512	0.853	0.843	0.789	0.85	0.829	0.794	0.761	0.784	0.792	0.812	0.899	0.905	0.99	1.01	0.903
NCI-H23	0.987	0.757	0.518	0.64	0.573	0.514	0.527	0.451	0.338	0.357	0.413	0.373	0.351	1.06	1	1.04	1.06	0.949
BEN	0.257	0.285	0.231	0.809	0.807	0.89	0.862	0.785	1.03	0.889	0.895	0.972	0.706	0.822	0.547	0.804	0.581	0.648
NCI-H1651	0.278	0.336	0.179	0.837	0.851	0.831	0.898	0.781	0.863	0.786	0.806	0.845	0.8	0.821	0.741	1.07	0.82	0.609
NCI-H2126	0.53	0.468	0.361	0.983	0.964	0.99	0.97	0.959	0.552	0.545	0.56	0.522	0.415	1.25	0.971	1.08	1.26	1.01
EKVX	0.24	0.23	0.208	1.01	0.882	1.13	1.02	0.531	0.353	0.349	0.335	0.407	0.224	0.976	0.639	0.681	1.18	0.859
NCI-H1650	0.505	0.285	0.148	0.943	0.806	–	0.736	0.581	0.637	0.477	0.494	0.588	0.372	1.09	0.615	0.976	0.905	0.59
NCI-H1703	–	–	–	0.672	–	0.515	0.547	0.234	–	–	–	–	–	0.323	–	0.353	0.402	0.424
NCI-H727	0.512	0.641	0.341	0.821	0.885	0.786	0.65	0.687	0.394	0.374	0.418	0.371	0.353	0.975	0.85	0.685	0.778	0.424
NCI-H838	0.468	0.395	0.193	0.819	0.846	0.898	0.819	0.724	0.579	0.504	0.544	0.591	0.423	1.04	1.02	1.08	1.23	0.862

Cell Line	relative viability (NVP-TAE684 + Phenformin; first compound 0.2 µM)	relative viability (NVP-TAE684 + Phenformin; first compound 0.6325 µM)	relative viability (NVP-TAE684 + Phenformin; first compound 2 µM)	relative viability (Vandetanib + Crizotinib; first compound 0.02 µM)	relative viability (Vandetanib + Crizotinib; first compound 0.06325 µM)	relative viability (Vandetanib + Crizotinib; first compound 0.2 µM)	relative viability (Vandetanib + Crizotinib; first compound 0.6325 µM)	relative viability (Vandetanib + Crizotinib; first compound 2 µM)	relative viability (CUDC-101 + Trametinib; first compound 0.01 µM)	relative viability (CUDC-101 + Trametinib; first compound 0.03162 µM)	relative viability (CUDC-101 + Trametinib; first compound 0.1 µM)	relative viability (CUDC-101 + Trametinib; first compound 0.3162 µM)	relative viability (CUDC-101 + Trametinib; first compound 1 µM)	relative viability (CUDC-101 + Foretinib; first compound 0.01 µM)	relative viability (CUDC-101 + Foretinib; first compound 0.03162 µM)	relative viability (CUDC-101 + Foretinib; first compound 0.1 µM)	relative viability (CUDC-101 + Foretinib; first compound 0.3162 µM)	relative viability (CUDC-101 + Foretinib; first compound 1 µM)
NCI-H1944	0.211	0.202	0.197	1.01	1.1	1.15	1.07	0.942	0.375	0.422	0.415	0.388	0.373	0.931	0.691	0.861	0.612	0.397
SK-LU-1	0.577	0.413	0.303	1.06	0.667	0.862	0.909	0.732	0.475	0.439	0.551	0.663	0.456	0.885	0.793	0.891	0.771	0.662
LC-2-ad	0.574	0.5	0.456	0.468	0.46	0.493	0.441	0.414	0.929	0.913	0.912	0.823	0.773	0.863	0.947	0.904	0.899	0.52
LOU-NH91	0.631	0.601	0.531	0.766	0.656	0.637	0.558	0.533	0.804	0.727	0.738	0.831	0.738	0.862	0.634	0.552	0.589	0.584
NCI-H2009	0.47	0.458	0.328	1.06	0.964	1.08	1.02	1.03	0.307	0.245	0.274	0.34	0.292	1.2	1.18	1.36	1.28	1.14
NCI-H647	0.309	0.423	0.189	1.06	1.07	1.1	1.06	0.981	0.461	0.411	0.543	0.538	0.443	1.16	1.11	1.14	1.21	0.877
NCI-H1395	0.462	0.411	0.404	–	–	–	–	–	1.13	1.05	1.01	1.19	0.981	1.05	0.846	1.01	1.09	0.844
EBC-1	–	–	–	0.19	0.177	0.195	0.194	0.152	–	–	–	–	–	0.0994	0.109	0.109	0.0873	0.0665
NCI-H2342	0.532	0.614	0.361	–	–	–	–	–	0.789	0.947	0.814	0.819	0.777	0.995	1.02	1.03	1.08	0.946
SW 900	0.592	0.474	0.385	–	–	–	–	–	0.914	0.74	0.799	0.627	0.746	0.761	0.629	0.738	0.885	0.716
HCC-44	0.263	0.141	0.0733	0.82	0.802	0.879	0.863	0.872	1.04	1.08	1.04	1.05	1.03	–	–	–	–	–
IA-LM	–	–	–	0.978	0.802	0.899	1.3	1.24	–	–	–	–	–	1.27	1.1	1.12	1.11	0.657
NCI-H522	0.685	0.777	0.608	–	–	–	–	–	0.605	0.747	0.893	0.651	0.642	–	–	–	–	–
NCI-H1299	–	–	–	0.932	0.902	0.927	0.967	0.95	–	–	–	–	–	1.08	1.06	1.13	1.12	1.04
ABC-1	0.218	0.226	0.122	1.13	1.05	1	1.34	0.728	–	–	–	–	–	1.04	0.797	1.07	0.704	0.519
NCI-H1623	0.552	0.598	0.484	–	–	–	–	–	–	–	–	–	–	0.847	0.821	0.711	0.911	0.483
NCI-H1563	0.662	0.645	0.53	0.887	0.835	0.794	0.852	0.858	–	–	–	–	–	0.925	0.872	0.851	0.895	0.87
NCI-H1793	0.35	0.371	0.26	–	–	–	–	–	0.331	0.347	0.349	0.427	0.44	0.669	0.449	0.628	0.5	0.403
NCI-H1648	–	–	–	–	–	–	–	–	0.461	0.595	0.437	0.351	0.277	–	–	–	–	–
A549	0.153	0.171	0.122	0.777	0.69	0.862	0.686	0.683	–	–	–	–	–	0.985	1	0.907	1.02	0.769
Calu-6	–	–	–	0.816	0.723	0.897	0.833	0.791	–	–	–	–	–	0.932	0.857	0.878	0.823	0.714
